Results published in patent US8785655B2, “Ionic liquid solvents” (Dublin City University, priority 2009, dated 2014).

Experiments:
[1] = tested on: Klebsiella pneumoniae D 11750/08; assay: Screen against bacteria, MIC/IC80; assay type: cell-based; conditions: KP
[2] = tested on: Staphylococcus epidermidis H 6966/08; assay: Screen against bacteria, MIC/IC80; assay type: cell-based; conditions: SE
[3] = tested on: Candida krusei E28; assay: In vitro antifungal activity, MIC by microdilution (NCCLS M27-A)
Experimental: All the isolates were maintained on Sabouraud dextrose agar prior to being tested.
(§1) Minimum inhibitory concentrations (MICs) were determined by the microdilution format of the NCCLS M27-A guidelines. […] RPMI 1640 (Sevapharma, Prague) medium supplemented with L-glutamine and buffered with 0.165 M morpholinepropanesulfonic acid to pH 7.0 was used as the test medium. The wells of the microdilution tray contained 100 μl of the RPMI 1640 medium with 2-fold serial dilutions of the compounds (1000 to 0.24 μmol/l for the new compounds) and 100 μl of inoculum suspension. Fungal inoculum in RPMI 1640 was prepared to give a final concentration of 5×103±0.2 cfu·ml-1. The trays were incubated at 35° C. and MICs were read visually for filamentous fungi and photometrically for yeasts as an optical density (OD) at 540 nm after 24 h and 48 h. The MICs were defined as 80% inhibition of the growth of control. MICs were determined twice and in duplicate. The deviations from the usually obtained were no higher than the nearest concentration value up and down the dilution scale.

[4] = tested on: Pseudomonas aeruginosa CCM 1961; assay: Screen against bacteria, MIC/IC80; assay type: cell-based; conditions: PA
[5] = tested on: Aspergillus fumigatus 231; assay: In vitro antifungal activity, MIC by microdilution (NCCLS M27-A); conditions: AF
[6] = tested on: Klebsiella pneumoniae J 14368/08 ESBL-positive; assay: Screen against bacteria, MIC/IC80; assay type: cell-based; conditions: KP-E
[7] = tested on: Candida tropicalis 156; assay: In vitro antifungal activity, MIC by microdilution (NCCLS M27-A); conditions: CT
[8] = tested on: Absidia corymbifera 272; assay: as above; conditions: AC
Experimental: (§2) In vitro antifungal activities of the compounds were evaluated on the collection of fungal strains deposited at the Department of Biological and Medical Sciences, Faculty of Pharmacy, Charles University, Czech Republic. All the isolates were maintained on Sabouraud dextrose agar prior to being tested.
as §1

[9] = tested on: Candida glabrata 20/l; assay: as above; conditions: CG
Experimental: as §2, §1

[10] = tested on: Candida albicans ATCC 90028; assay: as above
[11] = tested on: Candida krusei ATCC 6258; assay: as above
Experimental: as §2, §1

[12] = tested on: Candida albicans ATCC 44859; assay: as above
Experimental: as §2, §1

[13] = tested on: Staphylococcus aureus H 5996/08 Methiciline-resistant; assay: Screen against bacteria, MIC/IC80; assay type: cell-based; conditions: MRSA
[14] = tested on: Candida parapsilosis ATCC 22019; assay: In vitro antifungal activity, MIC by microdilution (NCCLS M27-A); conditions: CP
[15] = tested on: Trichophyton mentagrophytes 445; assay: as above; conditions: TM
[16] = tested on: Candida lusitaniae 2446/l; assay: as above; conditions: CL
Experimental: as §2, §1

[17] = tested on: Enterococcus sp. J 14365/08; assay: Screen against bacteria, MIC/IC80; assay type: cell-based; conditions: EF
[18] = tested on: Escherichia coli CCM4517; assay: Screen against bacteria, MIC/IC80; assay type: cell-based; conditions: EC
[19] = tested on: Staphylococcus aureus CCM 4516/08; assay: Screen against bacteria, MIC/IC80; assay type: cell-based; conditions: SA

| Compound | MIC/IC80 ([1]; 24 h) | MIC/IC80 ([1]; 48 h) | MIC/IC80 ([2]; 24 h) | MIC/IC80 ([2]; 48 h) | MIC/IC80 ([3]; CK2, 24 h) | MIC/IC80 ([3]; CK2, 48 h) | MIC/IC80 ([4]; 24 h) | MIC/IC80 ([4]; 48 h) | MIC/IC80 ([5]; 24 h) | MIC/IC80 ([5]; 48 h) | MIC/IC80 ([6]; 24 h) | MIC/IC80 ([6]; 48 h) | MIC/IC80 ([7]; 24 h) | MIC/IC80 ([7]; 48 h) | MIC/IC80 ([8]; 24 h) | MIC/IC80 ([8]; 48 h) | MIC/IC80 ([9]; 24 h) | MIC/IC80 ([9]; 48 h) | MIC/IC80 ([10]; CA2, 24 h) | MIC/IC80 ([10]; CA2, 48 h) | further results |
| --- | --- | --- | --- | --- | --- | --- | --- | --- | --- | --- | --- | --- | --- | --- | --- | --- | --- | --- | --- | --- | --- |
| CCCCCCCCOS(=O)(=O)[O-].CCOCCOC(=O)C(C)OC(=O)Cn1cc[n+](C)c1 (centres unmarked) [KG172, RS-3-methyl-1-[1-(ethoxyethoxycarbonyl)-1-methylmethoxycarbonylmethyl]imidazolium octyl sulphate] | >1000 µM | >1000 µM | >1000 µM | >1000 µM | >1000 µM | >1000 µM | >1000 µM | >1000 µM | >1000 µM | >1000 µM | >1000 µM | >1000 µM | >1000 µM | >1000 µM | >1000 µM | >1000 µM | >1000 µM | >1000 µM | >1000 µM | >1000 µM | MIC/IC80 ([11]; CK1, 24 h): >1000 µM; MIC/IC80 ([11]; CK1, 48 h): >1000 µM; MIC/IC80 ([12]; CA1, 24 h): >1000 µM; MIC/IC80 ([12]; CA1, 48 h): >1000 µM; MIC/IC80 ([13]; 24 h): >1000 µM; MIC/IC80 ([13]; 48 h): >1000 µM; MIC/IC80 ([14]; 24 h): >1000 µM; MIC/IC80 ([14]; 48 h): >1000 µM; MIC/IC80 ([15]; 72 h): >1000 µM; MIC/IC80 ([15]; 120 h): >1000 µM; MIC/IC80 ([16]; 24 h): >1000 µM; MIC/IC80 ([16]; 48 h): >1000 µM; MIC/IC80 ([17]; 24 h): >1000 µM; MIC/IC80 ([17]; 48 h): >1000 µM; MIC/IC80 ([18]; 24 h): >1000 µM; MIC/IC80 ([18]; 48 h): >1000 µM; MIC/IC80 ([19]; 24 h): >1000 µM; MIC/IC80 ([19]; 48 h): >1000 µM |
| CCCCCCCCOS(=O)(=O)[O-].CCOCCOC(=O)[C@@H](OC(=O)Cn1cc[n+](C)c1)c1ccccc1 [KG305, S-3-methyl-1-[1-(ethoxyethoxycarbonyl)-1-phenylmethoxycarbonylmethyl]imidazolium octyl sulphate] | >1000 µM | >1000 µM | >1000 µM | >1000 µM | >1000 µM | >1000 µM | >1000 µM | >1000 µM | >1000 µM | >1000 µM | >1000 µM | >1000 µM | >1000 µM | >1000 µM | >1000 µM | >1000 µM | >1000 µM | >1000 µM | >1000 µM | >1000 µM | MIC/IC80 ([11]; CK1, 24 h): >1000 µM; MIC/IC80 ([11]; CK1, 48 h): >1000 µM; MIC/IC80 ([12]; CA1, 24 h): >1000 µM; MIC/IC80 ([12]; CA1, 48 h): >1000 µM; MIC/IC80 ([13]; 24 h): >1000 µM; MIC/IC80 ([13]; 48 h): >1000 µM; MIC/IC80 ([14]; 24 h): >1000 µM; MIC/IC80 ([14]; 48 h): >1000 µM; MIC/IC80 ([15]; 72 h): >1000 µM; MIC/IC80 ([15]; 120 h): >1000 µM; MIC/IC80 ([16]; 24 h): >1000 µM; MIC/IC80 ([16]; 48 h): >1000 µM; MIC/IC80 ([17]; 24 h): >1000 µM; MIC/IC80 ([17]; 48 h): >1000 µM; MIC/IC80 ([18]; 24 h): >1000 µM; MIC/IC80 ([18]; 48 h): >1000 µM; MIC/IC80 ([19]; 24 h): >1000 µM; MIC/IC80 ([19]; 48 h): >1000 µM |
| CCCCCCCCOS(=O)(=O)[O-].CCOCCOC(=O)C(OC(=O)Cn1cc[n+](C)c1)c1ccccc1 (centres unmarked) [KG400, RS-3-methyl-1-[1-(ethoxyethoxycarbonyl)-1-phenylmethoxycarbonylmethyl]imidazolium octyl sulphate] | >1000 µM | >1000 µM | >1000 µM | >1000 µM | >1000 µM | >1000 µM | >1000 µM | >1000 µM | >1000 µM | >1000 µM | >1000 µM | >1000 µM | >1000 µM | >1000 µM | >1000 µM | >1000 µM | >1000 µM | >1000 µM | >1000 µM | >1000 µM | MIC/IC80 ([11]; CK1, 24 h): >1000 µM; MIC/IC80 ([11]; CK1, 48 h): >1000 µM; MIC/IC80 ([12]; CA1, 24 h): >1000 µM; MIC/IC80 ([12]; CA1, 48 h): >1000 µM; MIC/IC80 ([13]; 24 h): >1000 µM; MIC/IC80 ([13]; 48 h): >1000 µM; MIC/IC80 ([14]; 24 h): >1000 µM; MIC/IC80 ([14]; 48 h): >1000 µM; MIC/IC80 ([15]; 72 h): >1000 µM; MIC/IC80 ([15]; 120 h): >1000 µM; MIC/IC80 ([16]; 24 h): >1000 µM; MIC/IC80 ([16]; 48 h): >1000 µM; MIC/IC80 ([17]; 24 h): >1000 µM; MIC/IC80 ([17]; 48 h): >1000 µM; MIC/IC80 ([18]; 24 h): >1000 µM; MIC/IC80 ([18]; 48 h): >1000 µM; MIC/IC80 ([19]; 24 h): >1000 µM; MIC/IC80 ([19]; 48 h): >1000 µM |
| CCCCCOC(=O)C(OC(=O)Cn1cc[n+](C)c1)c1ccccc1.[Br-] (centres unmarked) [KG816, RS-3-methyl-1-[1-(pentoxycarbonyl)-1-phenylmethoxycarbonylmethyl]imidazolium bromide] | >1000 µM | >1000 µM | >1000 µM | >1000 µM | 1000 µM | >1000 µM | >1000 µM | >1000 µM | 1000 µM | 1000 µM | >1000 µM | >1000 µM | 1000 µM | >1000 µM | 1000 µM | 1000 µM | 1000 µM | 1000 µM | 1000 µM | >1000 µM | MIC/IC80 ([11]; CK1, 24 h): 1000 µM; MIC/IC80 ([11]; CK1, 48 h): 1000 µM; MIC/IC80 ([12]; CA1, 24 h): 500 µM; MIC/IC80 ([12]; CA1, 48 h): 1000 µM; MIC/IC80 ([13]; 24 h): >1000 µM; MIC/IC80 ([13]; 48 h): >1000 µM; MIC/IC80 ([14]; 24 h): >1000 µM; MIC/IC80 ([14]; 48 h): >1000 µM; MIC/IC80 ([15]; 72 h): 500 µM; MIC/IC80 ([15]; 120 h): 500 µM; MIC/IC80 ([16]; 24 h): >1000 µM; MIC/IC80 ([16]; 48 h): >1000 µM; MIC/IC80 ([17]; 24 h): >1000 µM; MIC/IC80 ([17]; 48 h): >1000 µM; MIC/IC80 ([18]; 24 h): >1000 µM; MIC/IC80 ([18]; 48 h): >1000 µM; MIC/IC80 ([19]; 24 h): 1000 µM; MIC/IC80 ([19]; 48 h): 1000 µM |
